Laboratory results as given in US10842892B2, “Methods and apparatus for synthesizing imaging agents, and intermediates thereof” (Lantheus Medical Imaging, Inc., priority 2010, dated 2020).
Values joined by “and” are separate entries in the source; they are usually repeats but may differ in a detail not shown here. Equal values may be shown once.

Legend:
patients = assay: Phase 2 clinical safety of imaging agent 1 injection; type: in vivo, human
viable left ventricle = assay: left ventricular viability after myocardial infarction, imaging agent 1 versus FDG; type: in vivo, rat
Procedure: MI was induced in rats by 30 minutes of\ coronary occlusion followed reperfusion. […] Viable left ventricle was quantified in images as the volume with ≥50% of maximum activity.

[1] = syringe adsorption of imaging agent 1; type: physicochemical; settings: three hours, ambient temperature
Procedure: The two sets of filled syringes were maintained at ambient temperature and humidity for a period of three hours, at which time the contents were injected into a clean 5 cc glass vial; a consistent volume of imaging agent 1 (0.1 mL) remained in the hub of each syringe. The total radioactivity content of both the vial and syringe were measured, decay corrected and the percent retention calculated. The difference in percent retained activity is statistically significant at the 95% confidence level (i.e. Prob>|t| 0.0005).

control and MI rabbits = assay: cardiovascular evaluation (ECG, arterial pressure) after injection in control and MI rabbits; type: in vivo, rabbit
Procedure: PET images and cardiovascular parameters were evaluated in both normal and MI rabbits. Prior to imaging, the rabbit was anesthetized with ketamine (25 mg/Kg, im) and xylazine (5 mg/Kg, im) and the marginal ear vein was catheterized for imaging agent 1 injection. The right femoral artery was isolated and canulated with a Millar catheter (SPC340, Millar Instruments, Houston, Tex.) for arterial pressure measurement. Then the animal was positioned in a microPET camera (Focus220, CTI Molecular Imaging, Inc. Knoxville, Tenn.) for cardiac imaging. The Millar catheter was connected to a computer driven data acquisition system (MP35, BIOPAC Systems, Goleta, Calif.) for recording of mean arterial pressure (MAP), and systolic and diastolic arterial pressure (SAP and DAP). In addition, electrocardiogram (ECG) was also recorded with 3 non-invasive limb leads in lead II configuration using the BIOPAC system. Heart rate (HR) and QT interval were derived from ECG recording. After a stabilization period, cardiovascular parameters: MAP, SBP, DBP and ECG, were recorded 5 minutes before imaging agent 1 intravenous injection (˜1.5 mCi) and the recording continued for additional 20 minutes post-injection. The rabbit was imaged for 30 minutes.
Data are expressed as mean±SD and unpaired student t-test (assuming unequal variances) was used for comparison of baseline values between control and MI rabbits. p<0.05 was considered statistically significant. At each timepoint (before and 1-, 5-, 10- and 20-minute after imaging agent 1 injection), MAP, SAP and DAP measured intraarterially averaged every 10-second, and HR and QTc interval derived from ECG recording averaged every 12 heart beats. The QT interval was manually defined by one investigator and QTc was generated from QT corrected by RR interval using Fridericia method (QTc=QT/RR1/3).9

SMILES: CC(C)(C)n1ncc(OCc2ccc(COCC[18F])cc2)c(Cl)c1=O [imaging agent 1, 2-t-butyl-4-chloro-5-[4-(2-(^18F)fluoroethoxymethyl)-benzyloxy]-2H-pyridazin-3-1]
- AEs judged to be related to the study drug (patients; 143 patients): 7
- patients with AEs judged to be related to the study drug (patients; 143 patients): 2
- seriousness of related AEs (patients; 143 patients): none were serious
- treatment emergent adverse events (AEs) reported (patients; 143 patients): 100
- ECG at rest: effect on heart rate, PR interval, QRS duration, QTcF duration (patients; human, in vivo): no evidence of any clinically relevant effect
- patients reporting treatment emergent adverse events (patients; of 143 patients): 61
- left ventricular volume (viable left ventricle; control rats before surgery): 1.17±0.04 cm3
- viable left ventricular tissue volume (viable left ventricle; early stage MI (two days post surgery)): 0.94±0.01 cm3
- viable left ventricular tissue volume (viable left ventricle; late stage MI (four weeks post surgery)): 1.18±0.04 cm3
- Retained Activity in syringe ([1]; B&D (Becton & Dickinson) three-component syringe): 35.2% and 38.9% and 32.4%
- Retained Activity in syringe ([1]; HSW (Henke Sass Wolf) two-component syringe): 11.3% and 7.0% and 5.1%
- QTc, change from baseline after injection (control and MI rabbits; Control rabbits (n = 3), 1 min): 2 ± 15 ms
- QTc, change from baseline after injection (control and MI rabbits; Control rabbits (n = 3), 5 min): -1 ± 11 ms
- QTc, change from baseline after injection (control and MI rabbits; Control rabbits (n = 3), 10 min): 6 ± 20 ms
- QTc, change from baseline after injection (control and MI rabbits; Control rabbits (n = 3), 20 min): 9 ± 15 ms
- Diastolic AP, change from baseline after injection (control and MI rabbits; Control rabbits, 1 min): 0 ± 1 mmHg
- Heart rate, change from baseline after injection (control and MI rabbits; Control rabbits, 1 min): −4 ± 2 beat/min
- Mean AP, change from baseline after injection (control and MI rabbits; Control rabbits, 1 min): 0 ± 0 mmHg
- Systolic AP, change from baseline after injection (control and MI rabbits; Control rabbits, 1 min): 0 ± 1 mmHg
- Diastolic AP, change from baseline after injection (control and MI rabbits; Control rabbits, 5 min): −1 ± 2 mmHg
- Heart rate, change from baseline after injection (control and MI rabbits; Control rabbits, 5 min): −2 ± 1 beat/min
- Mean AP, change from baseline after injection (control and MI rabbits; Control rabbits, 5 min): −2 ± 0 mmHg
- Systolic AP, change from baseline after injection (control and MI rabbits; Control rabbits, 5 min): −2 ± 1 mmHg
- Diastolic AP, change from baseline after injection (control and MI rabbits; Control rabbits, 10 min): 0 ± 5 mmHg
- Heart rate, change from baseline after injection (control and MI rabbits; Control rabbits, 10 min): −2 ± 4 beat/min
- Mean AP, change from baseline after injection (control and MI rabbits; Control rabbits, 10 min): −2 ± 3 mmHg
- Systolic AP, change from baseline after injection (control and MI rabbits; Control rabbits, 10 min): −1 ± 6 mmHg
- Diastolic AP, change from baseline after injection (control and MI rabbits; Control rabbits, 20 min): 0 ± 5 mmHg
- Heart rate, change from baseline after injection (control and MI rabbits; Control rabbits, 20 min): −4 ± 4 beat/min
- Mean AP, change from baseline after injection (control and MI rabbits; Control rabbits, 20 min): −1 ± 6 mmHg
- Systolic AP, change from baseline after injection (control and MI rabbits; Control rabbits, 20 min): 0 ± 5 mmHg
- QTc, change from baseline after injection (control and MI rabbits; MI rabbits (n = 4), 1 min): 8 ± 5 ms
- QTc, change from baseline after injection (control and MI rabbits; MI rabbits (n = 4), 5 min): 4 ± 6 ms
- QTc, change from baseline after injection (control and MI rabbits; MI rabbits (n = 4), 10 min): 4 ± 8 ms
- QTc, change from baseline after injection (control and MI rabbits; MI rabbits (n = 4), 20 min): 3 ± 12 ms
- Diastolic AP, change from baseline after injection (control and MI rabbits; MI rabbits, 1 min): 1 ± 1 mmHg
- Heart rate, change from baseline after injection (control and MI rabbits; MI rabbits, 1 min): 6 ± 5 beat/min
- Mean AP, change from baseline after injection (control and MI rabbits; MI rabbits, 1 min): 2 ± 1 mmHg
- Systolic AP, change from baseline after injection (control and MI rabbits; MI rabbits, 1 min): 1 ± 2 mmHg
- Diastolic AP, change from baseline after injection (control and MI rabbits; MI rabbits, 5 min): 2 ± 2 mmHg
- Heart rate, change from baseline after injection (control and MI rabbits; MI rabbits, 5 min): 3 ± 8 beat/min
- Mean AP, change from baseline after injection (control and MI rabbits; MI rabbits, 5 min): 2 ± 2 mmHg
- Systolic AP, change from baseline after injection (control and MI rabbits; MI rabbits, 5 min): 2 ± 2 mmHg
- Diastolic AP, change from baseline after injection (control and MI rabbits; MI rabbits, 10 min): 1 ± 1 mmHg
- Heart rate, change from baseline after injection (control and MI rabbits; MI rabbits, 10 min): 1 ± 6 beat/min
- Mean AP, change from baseline after injection (control and MI rabbits; MI rabbits, 10 min): −1 ± 2 mmHg
- Systolic AP, change from baseline after injection (control and MI rabbits; MI rabbits, 10 min): 0 ± 1 mmHg
- Diastolic AP, change from baseline after injection (control and MI rabbits; MI rabbits, 20 min): 2 ± 2 mmHg
- Heart rate, change from baseline after injection (control and MI rabbits; MI rabbits, 20 min): −7 ± 10 beat/min
- Mean AP, change from baseline after injection (control and MI rabbits; MI rabbits, 20 min): 2 ± 3 mmHg
- Systolic AP, change from baseline after injection (control and MI rabbits; MI rabbits, 20 min): 1 ± 7 mmHg
- effect on MAP, SAP and DAP (control and MI rabbits; MI rabbits, during and after administration): no alterations of these parameters were observed
- effect on ECG waveform, cardiac rhythm, HR and QTc interval (control and MI rabbits; control or MI rabbits, 1-, 5-, 10- and 20-minute post iv injection): did not alter
- effect on MAP, SAP and DAP (control and MI rabbits; control rabbits): did not induce changes
